Reference: the supplement of paper PMC10307832

Experiments:
Assay in all cases: relative viability (nuclei count vs DMSO), 5 days (fraction); higher = more cells survive
[1] = tested on: ABC-1
Method in brief: (§1)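 Relative viability divides the nuclei count in treated wells by that in vehicle wells. Lung cancer cell lines were seeded in 1536-well plates, dosed by pin tool the next day, and fixed and stained after 5 days in one step with final 0.05% Triton X-100, 1% formaldehyde and 1 ug/ml Hoechst. Dosing was a single drug or a fixed anchor-drug dose plus five library-drug doses (not always all listed) in √10 steps, and values are medians of duplicate plates imaged at 4×.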

[2] = tested on: COR-L23
Method in brief: as §1

[3] = tested on: EPLC-272H
Method in brief: as §1

[4] = tested on: HARA
Method in brief: as §1

[5] = tested on: HCC-15
Method in brief: as §1

[6] = tested on: HCC-44
Method in brief: as §1

[7] = tested on: HOP-62
Method in brief: as §1

[8] = tested on: LC-2-ad
Method in brief: as §1

[9] = tested on: LU99A
Method in brief: as §1

[10] = tested on: NCI-H1355
Method in brief: as §1

[11] = tested on: NCI-H1651
Method in brief: as §1

[12] = tested on: NCI-H1915
Method in brief: as §1

[13] = tested on: NCI-H1993
Method in brief: as §1

[14] = tested on: NCI-H2023
Method in brief: as §1

[15] = tested on: NCI-H2085
Method in brief: as §1

[16] = tested on: NCI-H2126
Method in brief: as §1

[17] = tested on: NCI-H2347
Method in brief: as §1

[18] = tested on: NCI-H650
Method in brief: as §1

[19] = tested on: NCI-H838
Method in brief: as §1

[20] = tested on: PC-14
Method in brief: as §1

[21] = tested on: SW 1573
Method in brief: as §1

[22] = tested on: UMC-11
Method in brief: as §1

SMILES: Cc1sc2c(c1C)C(c1ccc(Cl)cc1)=N[C@@H](CC(=O)OC(C)(C)C)c1nnc(C)n1-2 [JQ1] + O=C(c1cc(Cc2n[nH]c(=O)c3ccccc23)ccc1F)N1CCN(C(=O)C2CC2)CC1 [Olaparib] (partner 8 µM)
- relative viability ([1]; first compound 0.04 µM): 0.772
- relative viability ([1]; first compound 0.1265 µM): 0.575
- relative viability ([1]; first compound 0.4 µM): 0.744
- relative viability ([1]; first compound 1.265 µM): 0.748
- relative viability ([1]; first compound 4 µM): 0.385
- relative viability ([2]; first compound 0.04 µM): 0.357
- relative viability ([2]; first compound 0.1265 µM): 0.229
- relative viability ([2]; first compound 0.4 µM): 0.295
- relative viability ([2]; first compound 1.265 µM): 0.11
- relative viability ([2]; first compound 4 µM): 0.136
- relative viability ([3]; first compound 0.04 µM): 0.836
- relative viability ([3]; first compound 0.1265 µM): 0.716
- relative viability ([3]; first compound 0.4 µM): 0.53
- relative viability ([3]; first compound 1.265 µM): 0.471
- relative viability ([3]; first compound 4 µM): 0.199
- relative viability ([4]; first compound 0.04 µM): 0.739
- relative viability ([4]; first compound 0.1265 µM): 0.484
- relative viability ([4]; first compound 0.4 µM): 0.321
- relative viability ([4]; first compound 1.265 µM): 0.308
- relative viability ([4]; first compound 4 µM): 0.18
- relative viability ([5]; first compound 0.04 µM): 0.528
- relative viability ([5]; first compound 0.1265 µM): 0.641
- relative viability ([5]; first compound 0.4 µM): 0.693
- relative viability ([5]; first compound 1.265 µM): 0.58
- relative viability ([5]; first compound 4 µM): 0.392
- relative viability ([6]; first compound 0.04 µM): 0.978
- relative viability ([6]; first compound 0.1265 µM): 1.03
- relative viability ([6]; first compound 0.4 µM): 0.893
- relative viability ([6]; first compound 1.265 µM): 0.851
- relative viability ([6]; first compound 4 µM): 0.442
- relative viability ([7]; first compound 0.04 µM): 0.306
- relative viability ([7]; first compound 0.1265 µM): 0.285
- relative viability ([7]; first compound 0.4 µM): 0.18
- relative viability ([7]; first compound 1.265 µM): 0.114
- relative viability ([7]; first compound 4 µM): 0.115
- relative viability ([8]; first compound 0.04 µM): 0.701
- relative viability ([8]; first compound 0.1265 µM): 0.599
- relative viability ([8]; first compound 0.4 µM): 0.332
- relative viability ([8]; first compound 1.265 µM): 0.256
- relative viability ([8]; first compound 4 µM): 0.256
- relative viability ([9]; first compound 0.04 µM): 0.264
- relative viability ([9]; first compound 0.4 µM): 0.169
- relative viability ([9]; first compound 1.265 µM): 0.114
- relative viability ([9]; first compound 4 µM): 0.111
- relative viability ([10]; first compound 0.04 µM): 0.626
- relative viability ([10]; first compound 0.1265 µM): 0.697
- relative viability ([10]; first compound 0.4 µM): 0.643
- relative viability ([10]; first compound 1.265 µM): 0.403
- relative viability ([10]; first compound 4 µM): 0.344
- relative viability ([11]; first compound 0.04 µM): 0.175
- relative viability ([11]; first compound 0.1265 µM): 0.173
- relative viability ([11]; first compound 0.4 µM): 0.151
- relative viability ([11]; first compound 1.265 µM): 0.132
- relative viability ([11]; first compound 4 µM): 0.136
- relative viability ([12]; first compound 0.04 µM): 0.23
- relative viability ([12]; first compound 0.4 µM): 0.184
- relative viability ([12]; first compound 1.265 µM): 0.138
- relative viability ([12]; first compound 4 µM): 0.107
- relative viability ([13]; first compound 0.04 µM): 0.922
- relative viability ([13]; first compound 0.1265 µM): 0.994
- relative viability ([13]; first compound 0.4 µM): 1.1
- relative viability ([13]; first compound 1.265 µM): 0.807
- relative viability ([13]; first compound 4 µM): 0.584
- relative viability ([14]; first compound 0.04 µM): 0.442
- relative viability ([14]; first compound 0.1265 µM): 0.342
- relative viability ([14]; first compound 0.4 µM): 0.207
- relative viability ([14]; first compound 1.265 µM): 0.104
- relative viability ([14]; first compound 4 µM): 0.0832
- relative viability ([15]; first compound 0.04 µM): 0.781
- relative viability ([15]; first compound 0.1265 µM): 0.696
- relative viability ([15]; first compound 0.4 µM): 0.693
- relative viability ([15]; first compound 1.265 µM): 0.601
- relative viability ([15]; first compound 4 µM): 0.604
- relative viability ([16]; first compound 0.04 µM): 0.895
- relative viability ([16]; first compound 0.1265 µM): 0.909
- relative viability ([16]; first compound 0.4 µM): 0.951
- relative viability ([16]; first compound 1.265 µM): 0.8
- relative viability ([16]; first compound 4 µM): 0.735
- relative viability ([17]; first compound 0.04 µM): 0.544
- relative viability ([17]; first compound 0.1265 µM): 0.557
- relative viability ([17]; first compound 0.4 µM): 0.477
- relative viability ([17]; first compound 1.265 µM): 0.435
- relative viability ([17]; first compound 4 µM): 0.409
- relative viability ([18]; first compound 0.04 µM): 0.363
- relative viability ([18]; first compound 0.1265 µM): 0.306
- relative viability ([18]; first compound 0.4 µM): 0.273
- relative viability ([18]; first compound 1.265 µM): 0.151
- relative viability ([18]; first compound 4 µM): 0.146
- relative viability ([19]; first compound 0.04 µM): 0.749
- relative viability ([19]; first compound 0.1265 µM): 0.327
- relative viability ([19]; first compound 0.4 µM): 0.395
- relative viability ([19]; first compound 1.265 µM): 0.237
- relative viability ([19]; first compound 4 µM): 0.174
- relative viability ([20]; first compound 0.04 µM): 0.271
- relative viability ([20]; first compound 0.1265 µM): 0.153
- relative viability ([20]; first compound 0.4 µM): 0.14
- relative viability ([20]; first compound 1.265 µM): 0.0655
- relative viability ([20]; first compound 4 µM): 0.0723
- relative viability ([21]; first compound 0.04 µM): 0.428
- relative viability ([21]; first compound 0.1265 µM): 0.317
- relative viability ([21]; first compound 0.4 µM): 0.344
- relative viability ([21]; first compound 1.265 µM): 0.211
- relative viability ([21]; first compound 4 µM): 0.178
- relative viability ([22]; first compound 0.04 µM): 0.359
- relative viability ([22]; first compound 0.1265 µM): 0.282
- relative viability ([22]; first compound 0.4 µM): 0.268
- relative viability ([22]; first compound 1.265 µM): 0.142
- relative viability ([22]; first compound 4 µM): 0.0941
